In patent US8017124B2, “Use of DMBT1 for capturing sulphate and phosphate group exposing agents” (priority 2004, dated 2011):

Legend:
[1] = test system: Gram-positive S. mutans and Gram-negative E. coli bacteria; experiment: Peptide bacterial binding and aggregation studies; conditions: synthetic peptides
Method: For quantitative measurements of bacterial aggregation, we added 200 μl peptide stock solution (1 mg/ml in 10% DMSO) diluted with 300 μl TBS containing 0.1% v/v Tween 20 and 1 mM CaCl2 (TBS-TC) to 500 μl of the respective bacterial suspensions to obtain final peptide concentrations of […]. As controls, we used bacterial suspensions, to which 200 μl 10% (v/v %) DMSO in H2O and 300 μl TBS-TC were added. Bacterial aggregation was monitored by measuring the optical density at 700 nm in intervals of 1 min for 1 h in a spectrophotometer (UVICON 930, Kontron Instruments). For the semi-quantitative high-throughput competition assays, we first determined the allowed pH range for DMBT1pbs1-mediated aggregation of S. gordonii and E. coli by using TBS-TC adjusted with either HCl or NaOH. […] For monitoring competitive effects, we preincubated 20 μl of the DMBT1pbs1 stock solution (20 μg) with 20 μl of the respective substance solutions in 48-well microtiter plates at room temperature (RT) for 2 min. As reference served 20 μl 10% (v/v) DMSO solution in H2O mixed with 20 μl of the solvents of the respective substances. Afterwards, 100 μl of S. gordonii or E. coli (resuspended in TBS-TC or TBS-T, respectively, for the calcium-free assays) solution was added simultaneously to each well using a multichannel pipette. […]

[2] = target: HIV-gp120 (Human immunodeficiency virus type 1 group M subtype B, UniProt P04578); conditions: S. gordonii binding to immobilized SRCRP2 in absence and presence of HIV-gp120
Description: Left panel: peptide SRCRP2 (containing DMBT1pbs1) was immobilized on ELISA plates and bacterial binding (S. gordonii) was quantified in the absence and presence of different concentrations of HIV-gp120.

GRVEVLYRGSW [DMBT1pbs1]
bacterial binding and aggregation activity (Gram-positive and -negative bacteria) [1]: sufficient and necessary for interaction with Gram-positive and -negative bacteria | HIV-gp120 binding activity [2]: exerts HIV-gp120 binding activity
